Source: article PMC7251097, “Aspartate/asparagine-β-hydroxylase: a high-throughput mass spectrometric assay for discovery of small molecule inhibitors” (Scientific Reports, 2020)
Structures can show the parent of a compound that is named as a salt. Where two headings read alike, the source gives them in different places.

Target: T1, His6-AspH315–758 (human aspartate/asparagine-β-hydroxylase, AspH) (Homo sapiens, UniProt Q12797)
T1 construct: N-Terminally His6-tagged human AspH315–758 (His6-AspH315–758) was produced in E. coli BL21 (DE3) cells; made in house; host or cells: E. coli BL21 (DE3), pET-28a(+) vector
T1 sequence (Q12797 315-758): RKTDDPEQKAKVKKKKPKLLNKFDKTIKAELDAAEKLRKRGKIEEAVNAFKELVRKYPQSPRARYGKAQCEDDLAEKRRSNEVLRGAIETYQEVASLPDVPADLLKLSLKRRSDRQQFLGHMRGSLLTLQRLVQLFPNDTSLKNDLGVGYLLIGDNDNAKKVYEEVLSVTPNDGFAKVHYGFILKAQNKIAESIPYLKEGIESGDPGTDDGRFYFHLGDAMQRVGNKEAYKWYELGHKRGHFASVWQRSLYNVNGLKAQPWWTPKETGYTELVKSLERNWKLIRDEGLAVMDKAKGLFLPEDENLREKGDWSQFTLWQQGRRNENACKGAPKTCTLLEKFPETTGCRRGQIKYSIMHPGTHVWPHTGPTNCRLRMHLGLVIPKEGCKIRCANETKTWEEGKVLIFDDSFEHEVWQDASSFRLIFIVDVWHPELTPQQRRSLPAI
Experiment: SPE-MS AspH inhibition assay (LOPAC screen at fixed 20 μM and IC50 dose-response), hydroxylation of cyclic peptide hFX-CP101–119
Assay type: biochemical

[1] = LOPAC compound at fixed 20 uM, plate 1, normalised to DMSO and 2,4-PDCA controls
[2] = LOPAC compound at fixed 20 uM, substrate conversion, plate 1
[3] = LOPAC Plate 4, compound at 20 uM, substrate conversion
[4] = LOPAC compound at 20uM, plate 3, conversion of substrate peptide
[5] = LOPAC compound at 20uM, plate 2, conversion of substrate peptide
[6] = LOPAC compound at 20uM, plate 2, normalised to DMSO and 2,4-PDCA controls, read-out: Plate 2 (% inhibition)
[7] = LOPAC compound at 20uM, plate 2, normalised to DMSO and 2,4-PDCA controls
[8] = plate 5 (Pfitzer), test compounds at fixed 20 μM
[9] = plate 5 (Pfitzer), test compounds at fixed 20 μM, mean conversion DMSO 32.88
[10] = LOPAC Plate 4, compound at 20 uM, read-out: % inhibition
[11] = LOPAC Plate 4, compound at 20 uM

Cl.Cl.c1ccc(CCCN2CCN(CCOC(c3ccccc3)c3ccccc3)CC2)cc1 [GBR-12935 dihydrochloride]
Plate 2 (% conversion): 46.64% | Plate 2 (% inhibition) (20 µM): -31.91%

CC(=O)OCC(=O)[C@@]1(O)CC[C@H]2[C@@H]3CCC4=CC(=O)CC[C@]4(C)[C@H]3C(=O)C[C@@]21C [Cortisone 21-acetate]
Plate 1 (% inhibition) [1]: 4.10% | Plate 1 (% conversion) [2]: 34.50%

N[C@@H]1C[C@H]1c1ccccc1 [Tranylcypromine hydrochloride]
% conversion: 34.80%

S=C(Nc1ccccc1)Nc1nccs1 [1-Phenyl-3-(2-thiazolyl)-2-thiourea]
Plate 3 (% conversion): 40.98%

CCn1cnc2c(Nc3cccc(Cl)c3)nc(N[C@@H]3CCCC[C@@H]3N)nc21.Cl [CGP-74514A hydrochloride]
Plate 1 (% conversion): 10.02% | Plate 1 (% inhibition): 76.98%

NCCCCCC(=O)O [6-Aminohexanoic acid]
Plate 1 (% inhibition) [1]: -0.76% | Plate 1 (% conversion) [2]: 36.13%

COc1cc2c(cc1OC)C1CC(=O)C(CC(C)C)CN1CC2 (stereo not shown) [Tetrabenazine]
% conversion [3]: 27.36%

Cc1cccc(-c2[nH]ncc2-c2ccc3ncccc3n2)n1 [RepSox]
Plate 2 (% conversion): 40.48% | Plate 2 (% inhibition) (20 µM): -13.51%

Nc1nc2ccc(Cl)cc2n2c(-c3ccccc3)nnc12 [CP-66713]
Plate 3 (% conversion): 39.27% | Plate 5 (% conversion): 29.84% | Plate 5 (% inhibition): 19.04%

Nc1ccc(CCNc2ncnc3c2ncn3[C@@H]2O[C@H](CO)[C@@H](O)[C@H]2O)cc1 [N6-2-(4-Aminophenyl)ethyladenosine]
Plate 1 (% inhibition) [1]: -0.97% | Plate 1 (% conversion) [2]: 36.20%

Ro 20-1724
Plate 1 (% inhibition) [1]: -0.20% | Plate 1 (% conversion) [2]: 35.94%

CCc1c(C)[nH]c2c1C(=O)C(CN1CCOCC1)CC2 (stereo not shown) [Molindone hydrochloride]
Plate 3 (% conversion) [4]: 42.00%

CC(C(=O)O)c1ccc(CC2CCCC2=O)cc1 (stereo not shown) [loxoprofen]
Plate 3 (% conversion) [4]: 35.95%

COC(=O)C(N)Cc1ccc(Cl)cc1.Cl (racemic)
Plate 1 (% inhibition) [1]: 1.48% | Plate 1 (% conversion) [2]: 35.38%

CCCN(CCc1ccccc1)C1CCc2c(O)cccc2C1.Cl (racemic) [(±)-PPHT hydrochloride]
% conversion [3]: 27.49%

O=C(O)CCc1ccc(NCc2cccc(Oc3ccccc3)c2)cc1 [GW9508]
Plate 2 (% conversion) [5]: 35.17% | inhibition at 20 µM [6]: 2.34%

C[C@H](Cc1ccc(OCC(=O)[O-])cc1)NC[C@H](O)c1cccc(Cl)c1.[Na+] [BRL 37344 sodium]
Plate 1 (% inhibition) [1]: 4.03% | Plate 1 (% conversion) [2]: 34.52%

N[C@@H]1[C@H]2CN(c3nc4c(cc3F)c(=O)c(C(=O)O)cn4-c3ccc(F)cc3F)C[C@@H]12 [Trovafloxacin mesylate]
Plate 1 (% inhibition) [1]: -24.51% | Plate 1 (% conversion) [2]: 44.10%

Br.CCCN(CCC)[C@@H]1CCc2cccc(O)c2C1 [R-(+)-8-Hydroxy-DPAT hydrobromide]
Plate 2 (% conversion): 39.31% | Plate 2 (% inhibition) [7]: -10.03%

CN(C)C(=O)[C@H](O)[C@H](Cc1ccccc1)NC(=O)c1cc2cc(Cl)ccc2[nH]1 [CP-91149]
Plate 2 (% conversion): 37.12% | Plate 5 (% conversion): 35.66% | Plate 5 (% inhibition): 1.91% | Plate 2 (% inhibition) (20 µM): -3.47%

O=C1NCCc2[nH]c(-c3ccncc3)cc21 [PHA 767491]
Plate 5 (% inhibition) [8]: 26.12% | Plate 5 (% conversion) [9]: 27.42%

N[C@H]1CON=C1O [L-Cycloserine]
Plate 1 (% inhibition) [1]: -2.43% | Plate 1 (% conversion) [2]: 36.69%

O=S(=O)(N[C@H](CO)C(C(F)(F)F)C(F)(F)F)c1ccc(Cl)s1 [GSI-953]
Plate 5 (% inhibition) [8]: 5.55% | Plate 5 (% conversion) [9]: 34.43%

CN(C)CCC=C1c2ccccc2C=Cc2ccccc21 [Cyclobenzaprine hydrochloride]
Plate 1 (% inhibition) [1]: -15.86% | Plate 1 (% conversion) [2]: 41.20%

COC(=O)[C@H]1[C@H]2C[C@@H]3c4[nH]c5cc(OC)ccc5c4CCN3C[C@H]2C[C@@H](OC(=O)c2cc(OC)c(OC)c(OC)c2)[C@@H]1OC [Reserpine]
Plate 1 (% inhibition) [1]: -13.78% | Plate 1 (% conversion) [2]: 40.50%

C=CC1=C(C)c2cc3[nH]c(cc4nc(cc5[nH]c(cc1n2)c(C)c5CCC(=O)O)C(CCC(=O)O)=C4C)c(C)c3C=C [Protoporphyrin IX disodium]
% conversion [3]: 20.78% | inhibition at 20 µM [10]: 46%

O=C(O)c1cccnc1Nc1cccc(C(F)(F)F)c1 [Niflumic acid]
Plate 3 (% conversion) [4]: 32.98%

CC(C)c1c(-c2ccccc2)[nH]c2c(C#N)cnn2c1=O [CPI-455, reference compound]
IC50 [μM] (50 nM His6-AspH315–758, 1.0 μM hFX-CP101–119, 3 μM 2OG, 2 μM Fe(II), 50 mM HEPES pH 7.5, 20 °C, mean ± SD, n = 2 (2,4-PDCA n = 10)): inactive

CC1=C(/C=C/C(C)=C/C=C/C(C)=C/C(=O)Nc2ccc(O)cc2)C(C)(C)CCC1 [Retinoic acid p-hydroxyanilide]
Plate 2 (% conversion) [5]: 25.03% | Plate 2 (% inhibition) [7]: 32.63%

C[C@H](CSC(=O)c1ccccc1)C(=O)N1C[C@@H](Sc2ccccc2)C[C@H]1C(=O)[O-].C[C@H](CSC(=O)c1ccccc1)C(=O)N1C[C@@H](Sc2ccccc2)C[C@H]1C(=O)[O-].[Ca+2] [Zofenopril calcium]
% conversion: 32.50% | % inhibition (20 µM): 11.63%

CC(=O)NCCc1c[nH]c2ccccc12 [N-Acetyltryptamine]
Plate 1 (% inhibition) [1]: -6.27% | Plate 1 (% conversion) [2]: 37.98%

CC(=O)NCCc1c[nH]c2ccc(O)cc12 [N-Acetyl-5-hydroxytryptamine]
Plate 1 (% conversion): 34.66% | Plate 1 (% inhibition): 3.61%

N[C@@H](Cc1ccc(O)c(O)c1)C(=O)O [L-3,4-Dihydroxyphenylalanine]
Plate 2 (% conversion) [5]: 10.03% | Plate 2 (% inhibition) [7]: 77.43%

O=C1CCC(N2C(=O)c3ccccc3C2=O)C(=O)N1 (racemic) [(±)-Thalidomide]
% inhibition [11]: -5.00% | % conversion [3]: 38.18%

CC(N/C(=N\C#N)Nc1ccncc1)C(C)(C)C (stereo not shown) [Pinacidil]
% conversion [3]: 37.72%

Cn1c(=O)c(-c2c(Cl)cccc2Cl)cc2cnc(Nc3ccc(N4CCOCC4)cc3)nc21 [PD173952]
% inhibition [11]: -8.20% | % conversion [3]: 39.27% | Plate 5 (% inhibition) [8]: 58.03% | Plate 5 (% conversion) [9]: 16.57%

Cc1c(O)cccc1C(=O)N[C@@H](CSc1ccccc1)[C@H](O)CN1C[C@H]2CCCC[C@H]2C[C@H]1C(=O)NC(C)(C)C [Nelfinavir]
Plate 5 (% inhibition) [8]: 38.58% | Plate 5 (% conversion) [9]: 23.19%

COc1cccc(OC)c1-c1cc(C(=O)NC2(C(=O)O)C3CC4CC(C3)CC2C4)nn1-c1ccc(C(=O)N(C)CCCN(C)C)cc1C(C)C (stereo not shown) [SR 142948A]
Plate 2 (% conversion) [5]: 44.18% | Plate 2 (% inhibition) [7]: -24.57%

CCN(CC)CCNC(=O)c1ccc(N)cc1 [Procainamide hydrochloride]
% conversion [3]: 38.98% | inhibition at 20 µM [10]: -7.36%

CCOc1ncc(S(=O)(=O)N2CCN(CC)CC2)cc1-c1nc2c(CC)n(CCOC)nc2c(=O)[nH]1 [Gisadenafil]
Plate 5 (% inhibition) [8]: 10.85% | Plate 5 (% conversion) [9]: 32.62%

CN1[C@H]2C[C@H](OC(=O)[C@H](CO)c3ccccc3)C[C@@H]1[C@@H](O)C2 (racemic) [(+/-)-Anisodamine]
Plate 2 (% conversion): 36.39% | Plate 2 (% inhibition) (20 µM): -1.30%

CC(=O)[C@]1(O)Cc2c(O)c3c(c(O)c2[C@@H](O[C@H]2C[C@H](N)[C@H](O)[C@H](C)O2)C1)C(=O)c1ccccc1C3=O [Idarubicin]
Plate 2 (% conversion) [5]: 34.69% | inhibition at 20 µM [6]: 3.78%

N[C@@H](COP(=O)(O)O)C(=O)O [O-Phospho-L-serine]
Plate 3 (% conversion) [4]: 35.30%

NS(=O)(=O)c1cc(C(=O)O)c(NCc2ccco2)cc1Cl [Furosemide]
inhibition at 20 µM [6]: 2.67%
